Data: patent US9951077B2, “Aminopyridazinone compounds as protein kinase inhibitors” (ETERNITY BIOSCIENCE INC., priority 2014, dated 2018)

target: Btk (Homo sapiens (Human), UniProt Q06187); assay: Btk kinase assay (ADP-Glo); format: biochemical; conditions: ATP 1.2 μM, 60 minutes, room temperature; read-out: BTK enzyme IC50
Method: The Btk kinase assay was performed using a ADP-Glo Btk kinase assay kit purchased from Promega (Madison, Wis.). The assay was conducted according to the protocols provided in the assay kit. In brief, the enzyme reaction was carried out in the kinase reaction buffer containing Btk (2 ng/μl), ATP (1.2 μM), poly GT peptide (0.3 μM), DTT (40 nM), MnCl2 (1.4 mM), and 1×kinase buffer (included in the kit) in the presence or absence of the tested articles at various concentrations in 384-well plate at room temperature (22±1° C.) for 60 minutes. The final reaction volume for each reaction was 10 μl. Then, 4 μl of ADP-Glo reagent (included in the kit) was added into the reaction and the plate was further incubated for another 40 minutes to terminate the reaction and deplete the remaining ATP. Finally, 10 μl of the kinase detection reagent was added into each reaction to simultaneously convert ADP to ATP and allow the newly synthesized ATP to be measured by a plate-reading luminometer (Victor X5 2030 multilabel reader, PerkinElmer). IC50 value was calculated using appropriate programs in GraphPad Prism by plotting the logarithm of the concentration versus percent inhibition as compared with a vehicle (DMSO) control.

Btk, sequence (Q06187 whole entry): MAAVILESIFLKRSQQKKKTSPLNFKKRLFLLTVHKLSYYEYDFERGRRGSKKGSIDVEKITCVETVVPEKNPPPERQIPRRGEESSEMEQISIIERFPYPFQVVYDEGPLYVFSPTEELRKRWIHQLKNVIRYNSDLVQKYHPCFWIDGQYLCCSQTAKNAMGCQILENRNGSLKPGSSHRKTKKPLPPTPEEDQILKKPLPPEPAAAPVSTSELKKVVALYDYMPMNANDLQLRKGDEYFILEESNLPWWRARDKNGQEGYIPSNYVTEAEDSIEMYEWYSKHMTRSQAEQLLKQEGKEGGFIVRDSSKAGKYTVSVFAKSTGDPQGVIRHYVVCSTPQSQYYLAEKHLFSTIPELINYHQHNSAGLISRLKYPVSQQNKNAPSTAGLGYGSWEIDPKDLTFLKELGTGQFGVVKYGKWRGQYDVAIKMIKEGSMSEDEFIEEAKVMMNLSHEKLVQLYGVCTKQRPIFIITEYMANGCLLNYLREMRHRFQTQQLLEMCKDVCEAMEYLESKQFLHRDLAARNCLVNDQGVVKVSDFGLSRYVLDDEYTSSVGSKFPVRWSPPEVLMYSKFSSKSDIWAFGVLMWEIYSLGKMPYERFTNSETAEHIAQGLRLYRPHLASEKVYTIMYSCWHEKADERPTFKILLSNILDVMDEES

`C=CC(=O)N1CCC[C@@H](n2cc(-c3ccc(Oc4ccccc4)cc3)c3c(N)n[nH]c(=O)c32)C1` [Example 1, (R)-1-(1-acryloylpiperidin-3-yl)-4-amino-3-(4-phenoxyphenyl)-1H-pyrrolo[2,3-d]pyridazin-7(6H)-one] and `C=CC(=O)N1CC[C@H](n2cc(-c3ccc(Oc4ccccc4)cc3)c3c(N)n[nH]c(=O)c32)C1` [Example 3, 4-amino-3-(4-phenoxyphenyl)-1-[(3S)-1-prop-2-enoylpyrrolidin-3-yl]-6H-pyrrolo[2,3-d]pyridazin-7-one] cannot be ordered by IC50: no more than 10 nM for the first, 10 to 1000 nM for the second.

`C=CC(=O)N1CC[C@@H](n2cc(-c3ccc(Oc4ccccc4)cc3)c3c(N)n[nH]c(=O)c32)C1` [Example 4, 4-amino-3-(4-phenoxyphenyl)-1-[(3R)-1-prop-2-enoylpyrrolidin-3-yl]-6H-pyrrolo[2,3-d]pyridazin-7-one] and `C=CC(=O)N1CC(n2cc(-c3ccc(Oc4ccccc4)cc3)c3c(N)n[nH]c(=O)c32)C1` [Example 5, 4-amino-3-(4-phenoxyphenyl)-1-(1-prop-2-enoylazetidin-3-yl)-6H-pyrrolo[2,3-d]pyridazin-7-one] fall in the same range of IC50: 10 to 1000 nM for the first, 10 to 1000 nM for the second.

First: C=CC(=O)N1CCC[C@H]1Cn1cc(-c2ccc(Oc3ccccc3)cc2)c2c(N)n[nH]c(=O)c21 [Example 6, 4-amino-3-(4-phenoxyphenyl)-1-[[(2S)-1-prop-2-enoylpyrrolidin-2-yl]methyl]-6H-pyrrolo[2,3-d]pyridazin-7-one]
Second: C=CC(=O)N1CCC[C@@H]1Cn1cc(-c2ccc(Oc3ccccc3)cc2)c2c(N)n[nH]c(=O)c21 [Example 7, 4-amino-3-(4-phenoxyphenyl)-1-[[(2R)-1-prop-2-enoylpyrrolidin-2-yl]methyl]-6H-pyrrolo[2,3-d]pyridazin-7-one]
The IC50 of the first is lower: 10 to 1000 nM for the first, 1000 to 100000 nM for the second. The first is the more potent here.

`C=CC(=O)N1CCC(Cn2cc(-c3ccc(Oc4ccccc4)cc3)c3c(N)n[nH]c(=O)c32)C1` (centres unmarked) [Example 8, 4-amino-3-(4-phenoxyphenyl)-1-[(1-prop-2-enoylpyrrolidin-3-yl)methyl]-6H-pyrrolo[2,3-d]pyridazin-7-one] and `C=CC(=O)N1CC(Cn2cc(-c3ccc(Oc4ccccc4)cc3)c3c(N)n[nH]c(=O)c32)C1` [Example 12, 4-amino-3-(4-phenoxyphenyl)-1-[(1-prop-2-enoylazetidin-3-yl)methyl]-6H-pyrrolo[2,3-d]pyridazin-7-one] fall in the same range of IC50: 10 to 1000 nM for the first, 10 to 1000 nM for the second.

Compared with `C=CC(=O)N1CCC(n2cc(-c3ccc(Oc4ccccc4)cc3)c3c(N)n[nH]c(=O)c32)CC1` [Example 9, 4-amino-3-(4-phenoxyphenyl)-1-(1-prop-2-enoyl-4-piperidyl)-6H-pyrrolo[2,3-d]pyridazin-7-one], `C=CC(=O)N1CCC(Cn2cc(-c3ccc(Oc4ccccc4)cc3)c3c(N)n[nH]c(=O)c32)CC1` [Example 10, 4-amino-3-(4-phenoxyphenyl)-1-[(1-prop-2-enoyl-4-piperidyl)methyl]-6H-pyrrolo[2,3-d]pyridazin-7-one] is lower in IC50: 1000 to 100000 nM for the first, 10 to 1000 nM for the second.

`C=CC(=O)N1CCC(F)C(n2cc(-c3ccc(Oc4ccccc4)cc3)c3c(N)n[nH]c(=O)c32)C1` (centres unmarked) [Example 13, 1-(1-acryloyl-4-fluoropiperidin-3-yl)-4-amino-3-(4-phenoxyphenyl)-1H-pyrrolo[2,3-d]pyridazin-7(6H)-one] and `C=CC(=O)N1C[C@H](n2cc(-c3ccc(Oc4ccccc4)cc3)c3c(N)n[nH]c(=O)c32)CC(F)(F)C1` [Example 14, (R)-1-(1-acryloyl-5,5-difluoropiperidin-3-yl)-4-amino-3-(4-phenoxyphenyl)-1H-pyrrolo[2,3-d]pyridazin-7(6H)-one] cannot be ordered by IC50: no more than 10 nM for the first, no more than 10 nM for the second.

`C=CC(=O)NC1C2CCC1CC(n1cc(-c3ccc(Oc4ccccc4)cc3)c3c(N)n[nH]c(=O)c31)C2` (centres unmarked) [Example 15, N-(3-(4-amino-7-oxo-3-(4-phenoxyphenyl)-6,7-dihydro-1H-pyrrolo[2,3-d]pyridazin-1-yl)bicyclo[3.2.1]octan-8-yl)acrylamide] and `Nc1n[nH]c(=O)c2c1c(-c1ccc(Oc3ccccc3)cc1)cn2[C@@H]1CCCN(C(=O)C2CC2)C1` [Example 23, 4-amino-1-[(3R)-1-(cyclopropanecarbonyl)-3-piperidyl]-3-(4-phenoxyphenyl)-6H-pyrrolo[2,3-d]pyridazin-7-one] fall in the same range of IC50: 10 to 1000 nM for the first, 10 to 1000 nM for the second.

`CC(C)N(C)C/C=C/C(=O)N1CCC[C@@H](n2cc(-c3ccc(Oc4ccccc4)cc3)c3c(N)n[nH]c(=O)c32)C1` [Example 16, 4-amino-1-[(3R)-1-[(E)-4-[isopropyl(methyl)amino]but-2-enoyl]-3-piperidyl]-3-(4-phenoxyphenyl)-6H-pyrrolo[2,3-d]pyridazin-7-one] and `CN(C)C/C=C/C(=O)N1CCC[C@@H](n2cc(-c3ccc(Oc4ccccc4)cc3)c3c(N)n[nH]c(=O)c32)C1` [Example 26, 4-amino-1-[(3R)-1-[(E)-4-(dimethylamino)but-2-enoyl]-3-piperidyl]-3-(4-phenoxyphenyl)-6H-pyrrolo[2,3-d]pyridazin-7-one] cannot be ordered by IC50: no more than 10 nM for the first, no more than 10 nM for the second.

`CN(C/C=C/C(=O)N1CCC[C@@H](n2cc(-c3ccc(Oc4ccccc4)cc3)c3c(N)n[nH]c(=O)c32)C1)C(=O)OC(C)(C)C` [Example 17, tert-butyl N-[(E)-4-[(3R)-3-[4-amino-7-oxo-3-(4-phenoxyphenyl)-6H-pyrrolo[2,3-d]pyridazin-1-yl]-1-piperidyl]-4-oxo-but-2-enyl]-N-methyl-carbamate] and `CNC/C=C/C(=O)N1CCC[C@@H](n2cc(-c3ccc(Oc4ccccc4)cc3)c3c(N)n[nH]c(=O)c32)C1` [Example 18, 4-amino-1-[(3R)-1-[(E)-4-(methylamino)but-2-enoyl]-3-piperidyl]-3-(4-phenoxyphenyl)-6H-pyrrolo[2,3-d]pyridazin-7-one] cannot be ordered by IC50: 10 to 1000 nM for the first, no more than 10 nM for the second.

`CCC(=O)N1CCCC(n2cc(-c3ccc(Oc4ccccc4)cc3)c3c(N)n[nH]c(=O)c32)C1` (centres unmarked) [Example 19, 4-amino-3-(4-phenoxyphenyl)-1-(1-propionylpiperidin-3-yl)-1H-pyrrolo[2,3-d]pyridazin-7(6H)-one] and `Nc1n[nH]c(=O)c2c1c(-c1ccc(Oc3ccccc3)cc1)cn2[C@@H]1CCCN(C(=O)CCl)C1` [Example 22, 4-amino-1-[(3R)-1-(2-chloroacetyl)-3-piperidyl]-3-(4-phenoxyphenyl)-6H-pyrrolo[2,3-d]pyridazin-7-one] fall in the same range of IC50: 10 to 1000 nM for the first, 10 to 1000 nM for the second.

`N#CN1CCC[C@@H](n2cc(-c3ccc(Oc4ccccc4)cc3)c3c(N)n[nH]c(=O)c32)C1` [Example 20, (R)-3-(4-amino-7-oxo-3-(4-phenoxyphenyl)-6,7-dihydro-1H-pyrrolo[2,3-d]pyridazin-1-yl)piperidine-1-carbonitrile] and `N#CCC(=O)N1CCC[C@@H](n2cc(-c3ccc(Oc4ccccc4)cc3)c3c(N)n[nH]c(=O)c32)C1` [Example 24, 3-[(3R)-3-[4-amino-7-oxo-3-(4-phenoxyphenyl)-6H-pyrrolo[2,3-d]pyridazin-1-yl]-1-piperidyl]-3-oxo-propanenitrile] fall in the same range of IC50: 10 to 1000 nM for the first, 10 to 1000 nM for the second.

Compared with `CC#CC(=O)N1CCCC(n2cc(-c3ccc(Oc4ccccc4)cc3)c3c(N)n[nH]c(=O)c32)C1` (centres unmarked) [Example 21, 4-amino-1-(1-(but-2-ynoyl)piperidin-3-yl)-3-(4-phenoxyphenyl)-1H-pyrrolo[2,3-d]pyridazin-7(6H)-one], `C/C=C/C(=O)N1CCC[C@@H](n2cc(-c3ccc(Oc4ccccc4)cc3)c3c(N)n[nH]c(=O)c32)C1` [Example 25, 4-amino-1-[(3R)-1-[(E)-but-2-enoyl]-3-piperidyl]-3-(4-phenoxyphenyl)-6H-pyrrolo[2,3-d]pyridazin-7-one] is lower in IC50: 1000 to 100000 nM for the first, 10 to 1000 nM for the second.

`CCN(CC)C/C=C/C(=O)N1CCC[C@@H](n2cc(-c3ccc(Oc4ccccc4)cc3)c3c(N)n[nH]c(=O)c32)C1` [Example 27, 4-amino-1-[(3R)-1-[(E)-4-(diethylamino)but-2-enoyl]-3-piperidyl]-3-(4-phenoxyphenyl)-6H-pyrrolo[2,3-d]pyridazin-7-one] and `CCN(C/C=C/C(=O)N1CCC[C@@H](n2cc(-c3ccc(Oc4ccccc4)cc3)c3c(N)n[nH]c(=O)c32)C1)C1CC1` [Example 30, 4-amino-1-[(3R)-1-[(E)-4-[cyclopropyl(ethyl)amino]but-2-enoyl]-3-piperidyl]-3-(4-phenoxyphenyl)-6H-pyrrolo[2,3-d]pyridazin-7-one] cannot be ordered by IC50: no more than 10 nM for the first, 10 to 1000 nM for the second.

`Nc1n[nH]c(=O)c2c1c(-c1ccc(Oc3ccccc3)cc1)cn2[C@@H]1CCCN(C(=O)/C=C/CNC2CC2)C1` [Example 28, 4-amino-1-[(3R)-1-[(E)-4-(cyclopropylamino)but-2-enoyl]-3-piperidyl]-3-(4-phenoxyphenyl)-6H-pyrrolo[2,3-d]pyridazin-7-one] and `CN(C/C=C/C(=O)N1CCC[C@@H](n2cc(-c3ccc(Oc4ccccc4)cc3)c3c(N)n[nH]c(=O)c32)C1)C1CC1` [Example 29, 4-amino-1-[(3R)-1-[(E)-4-(cyclopropyl(methyl)amino)but-2-enoyl]-3-piperidyl]-3-(4-phenoxyphenyl)-6H-pyrrolo[2,3-d]pyridazin-7-one] cannot be ordered by IC50: no more than 10 nM for the first, 10 to 1000 nM for the second.

`CN(C/C=C/C(=O)N1CCC[C@@H](n2cc(-c3ccc(Oc4ccccc4)cc3)c3c(N)n[nH]c(=O)c32)C1)C1CCC1` [Example 31, 4-amino-1-[(3R)-1-[(E)-4-[cyclobutyl(methyl)amino]but-2-enoyl]-3-piperidyl]-3-(4-phenoxyphenyl)-6H-pyrrolo[2,3-d]pyridazin-7-one] was tested, and the IC50 was no more than 10 nM.
